PubChem BioAssay (NCI)
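Cultured in 96-well plates, cells were exposed to test compound for 48 hours across five concentrations. GI50 is the concentration that inhibits growth by half. The concentration for full growth arrest is given as TGI.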

Assays:
Assay in all cases: inhibition of tumour cell growth, NCI panel, 48 h
KM12 colon = tested on: KM12 colon
T-47D breast = tested on: T-47D breast
LOX IMVI melanoma = tested on: LOX IMVI melanoma
COLO 205 colon = tested on: COLO 205 colon
CAKI-1 renal = tested on: CAKI-1 renal
OVCAR-3 ovarian = tested on: OVCAR-3 ovarian
HL-60(TB) leukemia = tested on: HL-60(TB) leukemia
K-562 leukemia = tested on: K-562 leukemia
SK-MEL-28 melanoma = tested on: SK-MEL-28 melanoma
NCI-H226 lung = tested on: NCI-H226 lung

Structure (SMILES)	GI50 (KM12 colon)	TGI (KM12 colon)	GI50 (T-47D breast)	TGI (T-47D breast)	GI50 (LOX IMVI melanoma)	TGI (LOX IMVI melanoma)	GI50 (COLO 205 colon)	TGI (COLO 205 colon)	GI50 (CAKI-1 renal)	TGI (CAKI-1 renal)	GI50 (OVCAR-3 ovarian)	TGI (OVCAR-3 ovarian)	GI50 (HL-60(TB) leukemia)	TGI (HL-60(TB) leukemia)	GI50 (K-562 leukemia)	TGI (K-562 leukemia)	GI50 (SK-MEL-28 melanoma)	TGI (SK-MEL-28 melanoma)	GI50 (NCI-H226 lung)	TGI (NCI-H226 lung)
CC(CO)Nc1cc(-c2[nH]c3cccnc3c2-c2ccc(F)cc2)ccn1 (centres undefined)	19.1 µM	> 25 µM	17.1 µM	> 25 µM	13.7 µM	> 25 µM	13.8 µM	> 25 µM	8.23 µM	> 25 µM	16.8 µM	> 25 µM	> 25 µM	> 25 µM	23.4 µM	> 25 µM	> 25 µM	> 25 µM	> 23.8 µM	> 25 µM
CCOc1ccccc1CCN=C1NC(=O)/C(=C/c2ccc3ncccc3c2)S1	0.725 µM	10.1 µM	1.46 µM	> 25 µM	1.16 µM	7.9 µM	0.735 µM	3.07 µM	0.75 µM	> 7.13 µM	0.772 µM	2.29 µM	0.789 µM	2.65 µM	0.84 µM	19.8 µM	5.22 µM	> 24.1 µM	4.32 µM	> 25 µM
CN(C)c1cc2ccccc2oc1=O	–	> 100 µM	–	> 100 µM	–	> 100 µM	–	> 100 µM	–	> 100 µM	–	> 100 µM	–	> 100 µM	–	> 100 µM	–	> 100 µM	–	> 100 µM
CCN1C(=O)N(CC)C2C1NN=c1s/c(=C\c3ccc(Cl)cc3Cl)c(=O)n12 (centres undefined)	0.0274 µM	> 32.6 µM	15.7 µM	99.3 µM	0.0329 µM	> 35.1 µM	0.0263 µM	0.0748 µM	0.0396 µM	25.7 µM	0.0263 µM	0.0665 µM	0.0227 µM	0.0534 µM	0.0309 µM	28 µM	2.48 µM	> 100 µM	0.129 µM	–
C/C(CC(O)(C(F)(F)F)C(F)(F)F)=N\NC(N)=O	–	> 10 µM	–	> 10 µM	–	> 10 µM	–	> 10 µM	–	> 10 µM	–	> 10 µM	–	> 10 µM	–	> 10 µM	–	> 10 µM	–	> 10 µM
COc1cc(/C=C/C(=O)/C=C/c2cc(OC)c3c(c2)OCO3)cc2c1OCO2	1.98 µM	4.07 µM	9.62 µM	> 100 µM	1.89 µM	4.35 µM	4.86 µM	> 100 µM	> 100 µM	> 100 µM	7.66 µM	> 100 µM	63.4 µM	> 100 µM	22.9 µM	> 100 µM	39 µM	> 100 µM	34.8 µM	> 100 µM
O=S(=O)(Nc1ccc(Br)cc1)c1ccc(-c2cnc(C3CC3)o2)cc1	1.13 µM	17.5 µM	2.84 µM	16.9 µM	2.41 µM	18 µM	2.53 µM	12.1 µM	1.07 µM	15.1 µM	1.05 µM	3.96 µM	1.47 µM	6.41 µM	0.41 µM	> 100 µM	10 µM	22.9 µM	6.26 µM	25 µM
